{"source": "paper PMC11788587", "about": "“Validating Low‐Dose Iohexol as a Marker for Glomerular Filtration Rate by In Vitro and In Vivo Studies” (Clinical and Translational Science, 2025)", "key": {"[1]": {"system": "hOAT1, hOAT3, hOCT1, hOCT2, hMATE1, or hMATE2K", "experiment": "Substrate assessments, summary across transporters", "type": "in vitro ADME, human", "from_the_text": "We characterized the inhibitory potential of iohexol on major drug transporters recommended by regulatory agencies, which were previously assessed in a clinical transporter phenotyping cocktail study. These transporters include hOAT1, hOAT3, hOCT1, hOCT2, hMATE1, hMATE2K, human organic anion transporter polypeptides (hOATP)1B1, hOATP1B3, and human multidrug resistance protein (hMDR)1. Additionally, we investigated whether iohexol is a substrate for any of the renal transporters among these, including hOAT1/3, hOCT1/2, and hMATE1/2K. Cell‐based uptake assays were used to assess the activities of hOAT1/3, hOCT1/2, hMATE1/2K, and hOATP1B1/1B3. […]\nR version 4.2.1 (R Foundation for Statistical Computing, Vienna, Austria) was used for statistical evaluations and data visualization. The data analysis approach for the in vitro study was detailed by Hsin CH et al..^1 In brief, for transport assays, the initial uptake rate was calculated by normalizing the substrate concentration to both the protein concentration and the incubation time for each dish or well. The transporter-mediated uptake rate (net uptake) was determined by performing an element-wise subtraction of uptake rates from different conditions. […] Net uptake rates were determined by subtracting the uptake rate of the control cells or vesicles from that of the transporter-expressing cells or vesicles for each pair. […]"}, "hOAT1": {"target": "T1, hOAT1 (Homo sapiens, UniProt Q4U2R8)", "T1 construct": "expressed in transfected cells; host or cells: HEK-293 (293) cells, pEBTetD plasmid, doxycycline-induced", "T1 sequence (Q4U2R8 1-563)": "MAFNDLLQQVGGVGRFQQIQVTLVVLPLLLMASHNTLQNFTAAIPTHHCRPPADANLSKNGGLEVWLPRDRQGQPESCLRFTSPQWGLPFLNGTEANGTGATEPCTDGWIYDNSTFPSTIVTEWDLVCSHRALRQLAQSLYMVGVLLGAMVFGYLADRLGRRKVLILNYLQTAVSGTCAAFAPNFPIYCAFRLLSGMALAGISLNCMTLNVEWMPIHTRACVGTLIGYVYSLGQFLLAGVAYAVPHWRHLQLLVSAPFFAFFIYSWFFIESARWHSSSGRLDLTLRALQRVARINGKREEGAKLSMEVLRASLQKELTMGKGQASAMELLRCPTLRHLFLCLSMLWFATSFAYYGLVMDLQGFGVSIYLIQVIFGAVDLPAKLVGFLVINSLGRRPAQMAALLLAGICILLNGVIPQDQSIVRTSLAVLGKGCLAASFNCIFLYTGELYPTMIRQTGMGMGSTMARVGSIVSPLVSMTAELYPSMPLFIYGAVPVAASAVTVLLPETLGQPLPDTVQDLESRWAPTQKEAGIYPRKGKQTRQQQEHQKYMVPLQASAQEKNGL", "experiment": "Substrate assessment: iohexol uptake in 293 cells expressing hOAT1 vs control", "type": "in vitro ADME", "details": "10 μM iohexol, median (95% CI)", "from_the_text": "We characterized the inhibitory potential of iohexol on major drug transporters recommended by regulatory agencies, which were previously assessed in a clinical transporter phenotyping cocktail study. These transporters include hOAT1, hOAT3, hOCT1, hOCT2, hMATE1, hMATE2K, human organic anion transporter polypeptides (hOATP)1B1, hOATP1B3, and human multidrug resistance protein (hMDR)1. Additionally, we investigated whether iohexol is a substrate for any of the renal transporters among these, including hOAT1/3, hOCT1/2, and hMATE1/2K. Cell‐based uptake assays were used to assess the activities of hOAT1/3, hOCT1/2, hMATE1/2K, and hOATP1B1/1B3. Inside‐out membrane vesicle uptake assays were used to evaluate the activity of hMDR1.\nFor substrate assessments, iohexol was incubated with stably transfected HEK‐293 cells expressing one of the following transporters: hOAT1, hOAT3, hOCT1, hOCT2, hMATE1, or hMATE2K, as well as with control cells lacking transporter expression. Stably transfected cell lines containing pEBTetD plasmids with wild‐type human transporter cDNAs were generated as previously described. Transporter expression was induced by adding 1 μg/mL doxycycline to the growth medium for at least 20 h. Iohexol would be considered a substrate for these transporters if: (1) the ratio of iohexol uptake in cells expressing the transporter to that in control cells was ≥ 2, and (2) a known inhibitor of the transporter reduced iohexol uptake to ≤ 50% at concentrations ≥ 10 times its inhibition constant or half‐maximal inhibitory concentration.\nUptake assays were performed using stably transfected 293 cells, with or without the expression of one of the following transporters: hOAT1, hOAT3, hOCT1, hOCT2, hMATE1, or hMATE2K, as previously described.^1\nFor the substrate assessment, cells were incubated with 10 µM iohexol for 10 minutes and 30 minutes for each transporter. Inhibition assays were performed using specific standard substrates for each transporter: 10 µM para-aminohippuric acid (PAH) for hOAT1, 3 µM estrone-3-sulfate (E3S) for hOAT3, 50 µM metformin for hOCT1, 5 µM metformin for hOCT2, and 3 µM 1-methyl-4-phenylpyridinium (MPP+) for hMATE1 and hMATE2K. […]\nR version 4.2.1 (R Foundation for Statistical Computing, Vienna, Austria) was used for statistical evaluations and data visualization. The data analysis approach for the in vitro study was detailed by Hsin CH et al..^1 In brief, for transport assays, the initial uptake rate was calculated by normalizing the substrate concentration to both the protein concentration and the incubation time for each dish or well. The transporter-mediated uptake rate (net uptake) was determined by performing an element-wise subtraction of uptake rates from different conditions. […]"}}, "data": [{"compound": "CC(=O)N(CC(O)CO)c1c(I)c(C(=O)NCC(O)CO)c(I)c(C(=O)NCC(O)CO)c1I", "note": "(stereo not drawn) [iohexol]", "values": [{"measurement": "Increase in iohexol accumulation vs control cells, range of median values across transporters", "setting": "[1]; 10 μM iohexol for 10 and 30 min", "result": "−0.67 to 1.5", "unit": "pmol/mg protein"}, {"measurement": "Substrate of the transporters (conclusion)", "setting": "[1]; in vitro", "result": "neither a substrate nor a significant inhibitor"}, {"measurement": "Differences in intracellular accumulation (expression on minus off)", "setting": "hOAT1; 10 minutes", "result": "-0.39 (-3.4 to 1.1) pmol/mg protein"}, {"measurement": "Uptake ratio (transporter-expressing vs non-expressing cells)", "setting": "hOAT1; 10 minutes", "result": "0.91 (0.75 to 1.2)"}, {"measurement": "Differences in intracellular accumulation (expression on minus off)", "setting": "hOAT1; 30 minutes", "result": "0.98 (-0.62 to 2.1) pmol/mg protein"}, {"measurement": "Uptake ratio (transporter-expressing vs non-expressing cells)", "setting": "hOAT1; 30 minutes", "result": "1.1 (0.95 to 1.3)"}]}]}
